In US12419961B2 (CNPharm Co., Ltd., priority 2021, dated 2025):

How the values were obtained:
pancreatic cancer = pancreatic cancer patients, cited from earlier work
L929 = test: cell viability assay on L929 normal cell line; assay type: cell-based; conditions: FIG. 5B; normal mouse fibroblast cell line
[1] = weight monitoring in mouse xenograft model; assay type: in vivo, BALB/c mice; conditions: FIG. 6B; PANC-1 model; dose: docetaxel standard, 20 mg/kg
Protocol: (§1) Normally, non-treated group is injected with saline (NaCl solution) in anti-cancer efficacy study.

[2] = tested on: PANC-1 pancreatic carcinoma tumors; test: anticancer efficacy in mouse xenograft model (tumor growth); assay type: in vivo, BALB/c mice
Protocol: as §1

## O=c1[nH]cc(F)c(=O)[nH]1 [5-FU, 5-fluorouracil]
Pancreatic cancer
  survival rate, gemcitabine compared to 5-FU: 4.41 months
Pancreatic cancer; supportive care 2.5 months
  median overall survival rate compared to supportive care: 6 moths

## CC(=O)O[C@@]12CO[C@@H]1C[C@H](O)[C@@]1(C)C(=O)[C@H](O)C3=C(C)[C@@H](OC(=O)[C@H](O)[C@@H](NC(=O)OC(C)(C)C)c4ccccc4)C[C@@](O)([C@@H](OC(=O)c4ccccc4)[C@H]21)C3(C)C [DTX, docetaxel]
L929
  cytotoxicity toward normal cell line L929: low cytotoxicity
[1]
  body weight loss: significant body weight loss was observed
[2]; FIG. 6A; PANC-1 model; dose: docetaxel standard, 20 mg/kg; P<0.01 vs negative control
  tumor growth (mean tumor volume): significant inhibition in tumor growth

## Nc1ccn([C@@H]2O[C@H](CO)[C@@H](O)C2(F)F)c(=O)n1 [gemcitabine]
Pancreatic cancer
  survival rate, gemcitabine compared to 5-FU: 5.65 months

## docetaxel-aconitic anhydride conjugate [A3Tx]
[2]; FIG. 6A, PANC-1 model, dose: docetaxel standard, 20 mg/kg, P<0.01 vs negative control
  tumor growth (mean tumor volume): significant inhibition in tumor growth
[2]; FIG. 6A, PANC-1 model, dose: docetaxel standard, 20 mg/kg, P<0.01 vs negative control, listed as A3TX
  tumor growth (mean tumor volume): significantly delays tumor growth
